Experimental data: article PMC8148385, “A robust photoluminescence screening assay identifies uracil-DNA glycosylase inhibitors against prostate cancer” (Chemical Science, 2020)
pIC50: −log10 of the molar value. Like-named read-outs stand apart in the source and are kept apart here.

How the values were obtained:
[1] = molecular target: T1, uracil-DNA glycosylase (UDG) (Escherichia coli, UniProt P12295); test: TRES G-quadruplex/iridium probe UDG activity assay with commercial UDG; also fluorescence thermal shift (ca. […] °C); format: biochemical
T1 construct: gene ung

[2] = molecular target: T1, uracil-DNA glycosylase (UDG); test: as above; format: biochemical; remark: listed apart in the source
[3] = molecular target: T2, uracil-DNA glycosylase (UDG) (Mus musculus, UniProt P97931); test: CETSA in RM-1 cell lysates; format: cell-based
T2 construct: gene Ung; endogenous UDG in RM-1 cell lysates
T2 sequence (P97931 whole entry): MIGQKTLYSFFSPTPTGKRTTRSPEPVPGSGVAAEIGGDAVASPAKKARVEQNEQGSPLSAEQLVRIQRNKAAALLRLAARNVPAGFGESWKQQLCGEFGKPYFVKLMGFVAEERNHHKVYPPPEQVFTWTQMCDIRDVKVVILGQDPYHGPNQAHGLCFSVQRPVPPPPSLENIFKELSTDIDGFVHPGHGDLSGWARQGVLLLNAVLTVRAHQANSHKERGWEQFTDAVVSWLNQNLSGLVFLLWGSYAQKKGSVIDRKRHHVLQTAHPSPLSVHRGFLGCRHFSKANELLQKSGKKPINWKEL

T1 sequence (P12295 2-229): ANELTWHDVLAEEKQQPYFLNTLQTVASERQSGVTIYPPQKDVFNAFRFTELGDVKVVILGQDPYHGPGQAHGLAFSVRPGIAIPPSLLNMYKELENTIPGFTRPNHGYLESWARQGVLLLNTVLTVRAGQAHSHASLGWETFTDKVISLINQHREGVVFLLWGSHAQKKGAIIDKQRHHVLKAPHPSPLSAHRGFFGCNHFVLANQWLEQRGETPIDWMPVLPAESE

Compound	pIC50 [1]	pIC50 [2]	CETSA in RM-1 cell lysates [3]
O=[N+]([O-])c1ccc(S(=O)(=O)N2/C(=C\c3ccccc3)C(O)(c3ccccc3)c3ccccc32)cc1 (stereo not drawn) [A8]	5.72		
O=C(N/N=C/c1ccc([N+](=O)[O-])o1)c1ccc(O)cc1 [S13, nifuroxazide]		~5.40	in the presence of compound A8 and S13, indicating that both of them directly engaged and stabilized UDG
